Tests used:
[1] = biological target: T1, LXRa (NR1H3) (Homo sapiens, UniProt Q13133); test: ATG_LXRa_TRANS: Factorial reporter gene assay (HepG2); format: cell-based
T1 construct: expressed in transfected cells; host or cells: HepG2
T1 sequence (Q13133 1-447): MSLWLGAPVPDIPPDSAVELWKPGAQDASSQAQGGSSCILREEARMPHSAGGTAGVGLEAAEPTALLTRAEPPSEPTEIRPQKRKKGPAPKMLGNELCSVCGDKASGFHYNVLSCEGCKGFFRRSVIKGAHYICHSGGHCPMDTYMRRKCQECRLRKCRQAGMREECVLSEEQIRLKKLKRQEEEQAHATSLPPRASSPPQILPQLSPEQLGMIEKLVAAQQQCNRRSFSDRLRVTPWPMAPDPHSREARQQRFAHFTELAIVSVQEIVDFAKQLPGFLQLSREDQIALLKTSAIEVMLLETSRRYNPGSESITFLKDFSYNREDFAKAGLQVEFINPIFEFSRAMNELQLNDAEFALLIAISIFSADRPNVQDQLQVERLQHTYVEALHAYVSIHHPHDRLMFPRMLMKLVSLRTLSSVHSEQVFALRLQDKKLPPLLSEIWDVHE
Description: (§1) A multiple reporter transcription unit (MRTU) library consisting of 48 transcription factor binding sites was transfected into the HepG2 human liver hepatoma cell line. In addition to the cis-acting reporter genes (CIS), a modification of the approach was used to generate a trans-system (TRANS) with a mammalian one-hybrid assay consisting of an additional 25 MRTU library reporting the activity of nuclear receptor super-family members. […] These assays were performed by Attagene Inc. (Morrisville NC) under contract to EPA.
(§2) In addition to the cis-acting reporter genes (CIS), a modification of the approach was used to generate a trans-system (TRANS) with a mammalian one-hybrid assay consisting of an additional 25 MRTU library reporting the activity of nuclear receptor super-family members. […] Chemicals were then tested in the CIS and TRANS assays at seven concentrations starting at the MTC and followed by three-fold serial dilutions. These assays were performed by Attagene Inc. (Morrisville NC) under contract to EPA. Detailed description of the methods, data and analysis methods for this dataset will be presented in a separate publication.

[2] = system: HMGCS2; test: CLZD_HMGCS2: Change in expression of HMGCS2 (primary human hepatocytes); format: cell-based; conditions: 24 hr, scale not given, looks like -log10 of molar active concentration, 0 = no activity
Description: This is a collection of multiplexed gene expression assays focused on Phase I and II xenobiotic metabolizing enzymes and transporters. Human primary cell cultures were treated with chemicals at 5 concentrations (0.004-40 [drawing 42] M) for 6, 24 and 48 hr. Concentration- and time-response profiles of chemicals were measured by the expression of key nuclear receptor target genes, activities of CYP1A enzymes (EROD), and cell morphology. Fourteen gene targets were monitored by quantitative nuclease protection assay including: six representative cytochrome P-450 genes, four hepatic transporters, three Phase II conjugating enzymes, and one endogenous metabolism gene involved in cholesterol synthesis. The target genes associated with nuclear receptor pathways are as follows: [drawing 43] and [drawing 44] with [drawing 45]; [drawing 46] , [drawing 47] , [drawing 48] , [drawing 49] , [drawing 50] and [drawing 51] with [drawing 52]; [drawing 53] , [drawing 54] , [drawing 55] and [drawing 56] with [drawing 57]; [drawing 58] with [drawing 59]; and [drawing 60] with [drawing 61] . Assays were run in primary human hepatocyte cultures by CellzDirect Invitrogen Inc. (Durham, NC), in collaboration with EPA.
Multiplexed Gene Expression in Human Primary Hepatocytes: This is a collection of multiplexed gene expression assays focused on Phase I and II metabolic enzymes and transporters. […] Fourteen gene targets were monitored by quantitative nuclease protection assay: six representative cytochrome P450 genes, four hepatic transporters, three Phase II conjugating enzymes, and one endogenous metabolism gene involved in cholesterol synthesis. Cells were exposed at 5 concentrations (0.004-40 µM) for 6, 24 or 48 hr. Gene targets are sentinels for five nuclear receptor signaling pathways: AhR, CAR, PXR, FXR, and PPARα. All gene are associated with nuclear receptor pathways: CYP1A1 and CYP1A2 with AHR; ABCB1, ABCG2, CYP2B6, CYP2C9, CYP2C19 and UGT1A1 with CAR; CYP3A4, GSTA2, SLCO1B1 and SULT2A1 with PXR; HMGCS2 with PPARA; and ABCB11 with FXR. […] Detailed description of the methods, data and analysis methods for this dataset will be presented in a separate publication.

[3] = biological target: T2, LXRb (NR1H2) (Homo sapiens, UniProt P55055); test: ATG_LXRb_TRANS: Factorial reporter gene assay (HepG2); format: cell-based
T2 construct: expressed in transfected cells; host or cells: HepG2
T2 sequence (P55055 1-460): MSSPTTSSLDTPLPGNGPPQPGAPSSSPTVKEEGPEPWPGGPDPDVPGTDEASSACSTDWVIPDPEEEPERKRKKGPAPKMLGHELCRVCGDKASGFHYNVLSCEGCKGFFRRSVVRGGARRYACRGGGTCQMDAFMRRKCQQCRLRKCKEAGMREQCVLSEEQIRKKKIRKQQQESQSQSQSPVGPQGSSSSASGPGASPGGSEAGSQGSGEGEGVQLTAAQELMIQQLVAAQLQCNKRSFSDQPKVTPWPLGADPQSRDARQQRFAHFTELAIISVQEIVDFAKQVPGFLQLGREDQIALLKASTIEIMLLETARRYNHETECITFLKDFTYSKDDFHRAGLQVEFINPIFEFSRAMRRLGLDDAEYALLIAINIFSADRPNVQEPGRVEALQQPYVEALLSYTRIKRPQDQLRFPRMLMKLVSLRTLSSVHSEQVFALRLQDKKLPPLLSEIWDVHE
Description: as §1, §2

[4] = system: LXR (NR1H3); test: ATG_DR4_LXR_CIS: Factorial reporter gene assay (HepG2); format: cell-based, human; set-up: scale not given here; conditions: scale not given, looks like -log10 of molar active concentration, 0 = no activity
Description: as §1, §2

[5] = HepG2, scale not given, looks like -log10 of molar active concentration, 0 = no activity

Structure (SMILES) | ATG_LXRa_TRANS [1, 5] | CLZD_HMGCS2_24 [2] | ATG_LXRb_TRANS [3, 5] | ATG_DR4_LXR_CIS [4] | ATG_LXRa_TRANS ([1]; HepG2 reporter) | ATG_LXRb_TRANS ([3]; HepG2 reporter)
COC(=O)c1ccccc1CS(=O)(=O)NC(=O)Nc1nc(OC)cc(OC)n1 [r33] | 0 | 0 | 4.347 | 0 | – | –
CC(C)N1C(=O)c2ccccc2NS1(=O)=O [r37] | 4.357 | 0 | 4.357 | 4.284 | – | –
COc1ccc(-c2ccccc2)cc1NNC(=O)OC(C)C [r38] | 0 | 0 | 0 | 0 | – | –
Cc1c(COC(=O)C2C(/C=C(\Cl)C(F)(F)F)C2(C)C)cccc1-c1ccccc1 (stereo not drawn) [r39] | 0 | 0 | 0 | 0 | – | –
CC(C)(c1ccc(O)cc1)c1ccc(O)cc1 [r40] | 0 | 0 | 0 | 0 | – | –
OB(O)O [r41] | 0 | 0 | 0 | 0 | – | –
O=C(Nc1ccccc1-c1ccc(Cl)cc1)c1cccnc1Cl [r42] | 0 | 0 | 0 | 0 | – | –
CCC(C)n1c(=O)[nH]c(C)c(Br)c1=O (stereo not drawn) [r43] | 0 | 0 | 0 | 0 | – | –
N#Cc1cc(Br)c(O)c(Br)c1 [r44] | 0 | 0 | 0 | 0 | – | –
CC(C)N1C(=O)N(c2ccccc2)CS/C1=N\C(C)(C)C [r45] | 0 | 0 | 0 | 0 | – | –
CCCCOCN(C(=O)CCl)c1c(CC)cccc1CC [r46] | 0 | 0 | 0 | 0 | – | –
C=CCOC(=O)C(C)(C)OC(=O)c1cc(-n2c(=O)cc(C(F)(F)F)n(C)c2=O)ccc1Cl [r47] | 0 | 0 | 0 | 0 | – | –
CCC(C)Nc1c([N+](=O)[O-])cc(C(C)(C)C)cc1[N+](=O)[O-] (stereo not drawn) [r48] | 0 | 0 | 0 | 0 | – | –
CCSC(=O)N(CC(C)C)CC(C)C [r49] | 0 | 0 | 0 | 0 | – | –
O=C1C2CC=CCC2C(=O)N1SC(Cl)(Cl)Cl (stereo not drawn) [r51] | 0 | 0 | 0 | 0 | – | –
CNC(=O)Oc1cccc2ccccc12 [r52] | 0 | 0 | 0 | 0 | – | –
CC1=C(C(=O)Nc2ccccc2)SCCO1 [r53] | 0 | 0 | 0 | 0 | – | –
CCOC(=O)C(Cl)Cc1cc(-n2nc(C)n(C(F)F)c2=O)c(F)cc1Cl (stereo not drawn) [r54] | 0 | 0 | 0 | 0 | – | –
Nc1cnn(-c2ccccc2)c(=O)c1Cl [r56] | 0 | 0 | 0 | 0 | – | –
COc1cc(Cl)c(OC)cc1Cl [r57] | 0 | 0 | 0 | 0 | – | –
N#Cc1c(Cl)c(Cl)c(Cl)c(C#N)c1Cl [r58] | 0 | 0 | 0 | 0 | – | –
CC(C)OC(=O)Nc1cccc(Cl)c1 [r59] | 0 | 0 | 0 | 0 | – | –
COc1nc(C)nc(NC(=O)NS(=O)(=O)c2ccccc2Cl)n1 [r62] | 0 | 0 | 0 | 0 | – | –
COc1nc(C)nc(NC(=O)NS(=O)(=O)c2ccccc2Cl)n1 [r63] | 0 | 0 | 0 | 0 | – | –
Cc1ccccc1CO[C@@H]1C[C@@]2(C(C)C)CC[C@]1(C)O2 [r64] | 4.377 | 0 | 0 | 0 | – | –
CCc1nn(C)c(C(=O)NCc2ccc(C(C)(C)C)cc2)c1Cl [r291] | – | – | – | – | 6.444 | 6.337

From article PMC3038857, “Using Nuclear Receptor Activity to Stratify Hepatocarcinogens” (PLoS ONE, 2011)
